Assay results from patent US6022696A, “Methods of identifying agonists or antagonists of angiotensin IV” (Washington State University Research Foundation, priority 1998, dated 2000).
Read-outs that look alike come from different tables or passages of the source. Non-standard residues stand in square brackets, D forms with d. Residues, ends and D or L forms follow the SMILES beside them. Nle = CCCC[C@H](N)C(=O)O

Experiments:
rat [1] = experiment: Systemic arterial blood pressure during renal artery infusion
rat [2] = conditions: in vivo

Compound | effect on arterial blood pressure (rat [1]) | effect on arterial blood pressure (rat [2])
CC[C@H](C)[C@H](NC(=O)[C@H](Cc1ccc(O)cc1)NC(=O)[C@@H](N)CCCCN)C(=O)N[C@@H](Cc1c[nH]cn1)C(=O)N1CCC[C@H]1C(=O)N[C@@H](Cc1ccccc1)C(=O)O [KYIHPF] (H-KYIHPF-OH) | no significant changes in arterial blood pressure | 
CCCC[C@H](N)C(=O)N[C@@H](Cc1ccc(O)cc1)C(=O)N[C@H](C(=O)N[C@@H](Cc1cnc[nH]1)C(=O)N1CCC[C@H]1C(=O)N[C@@H](Cc1ccccc1)C(=O)O)[C@@H](C)CC [NleYIHPF] (H-[Nle]YIHPF-OH) |  | no effect on mean arterial pressure
